For three molecules, binding and DC50 results are on record in article PMC6270413 (2013).

For assay [1], the system named is C-myc quadruplex (DNA, G4) TGGGGAGGGTGGGGAGGGTGGGGAAGG
In words: fluorescence titration. The settings on record: K+ 100 mM (KCl); 10 mM Tris-HCl, 0.1 mM EDTA, pH 7.5.

Assay [2] shares this test system. Briefly: fluorescent intercalator displacement titration. The settings on record: K+ 100 mM (KCl); 10 mM Tris-HCl, 0.1 mM EDTA, pH 7.5; thiazole orange displaced.
Assay [3] concerns TFO C-myc duplex (Table 2: C-myc duplex) (DNA, duplex) AGGGAGGGAGGTAAGAAAAAGGG/CCCTTTTTCTTACCTCCCTCCCT
In words: FID screen (thiazole orange displacement, single concentration). Particulars: K+ 100 mM (KCl); 10 mM Tris-HCl, 0.1 mM EDTA, pH 7.5, 21–23 °C; 0.25 µM duplex, 0.50 µM TO, ligand 1:1.

Assay [4] concerns C-myc quadruplex (DNA, G4) TGGGGAGGGTGGGGAGGGTGGGGAAGG
In words: UV-Vis absorption (hypochromism, 19 nm bathochromic shift). Particulars: K+ 100 mM (KCl); 10 mM Tris-HCl, 0.1 mM EDTA, pH 7.5, 22–24 °C; 5 µM DNA, 5 µM ligand.

Assay [5] shares this test system. In words: circular dichroism titration. The settings on record: K+ 100 mM (KCl); 10 mM Tris-HCl, 0.1 mM EDTA, pH 7.5, 20 °C; 10 µM strand; induced CD only above ratio two. In general terms: Circular dichroism is the unequal absorption of left and right circularly polarised light.

Bounds are passed on as bounds.

Turning to `CN1C(=Cc2cc[n+](C)c3ccccc23)Sc2ccccc21`, the binding result in assay [1] is listed as “yes”.

Turning to `NC[C@@H]1O[C@H](O[C@H]2[C@@H](O)[C@H](O[C@@H]3[C@@H](O)[C@H](N)C[C@H](N)[C@H]3O[C@H]3O[C@H](CN)[C@@H](O)[C@H](O)[C@H]3N)O[C@@H]2CO)[C@H](N)[C@@H](O)[C@@H]1O`, in assay [2], the DC50 was greater than 5.5 µM.

In the case of `CN1CCN(c2ccc3nc(-c4ccc5nc(-c6ccc(O)cc6)[nH]c5c4)[nH]c3c2)CC1`, the binding result in assay [3], in assay [4] and in assay [5] was “yes” in each case. The molecule also showed a DC50 in assay [2] of 1.58 ± 0.01 µM.
